Experimental findings from patent US9555055B2, “Use of albiflorin and metabolites thereof” (priority 2010, dated 2017) are described below.

Structures can show the parent of a compound that is named as a salt. Marks after values point to notes of the source that are not given here.

Holding throughout (assay type): in vivo
Assay [1] relates to ICR mice. As to the kind of experiment: Sleep-prolonging test of pentobarbital sodium at the suprathreshold dose. As to conditions: 10 days, pentobarbital sodium 51 mg/kg ip. On the procedure:
(§1) If the mice were kept in a supine position for more than 1 min, it would be considered that the righting reflex was disappeared in mice. After spontaneously rolling over, the mice were immediately placed in a supine position. If the mice could roll over within 1 min, it would be considered that the righting reflex was recovered. The time of the righting reflex being disappeared and recovered in mice were recorded. The period from the mice being intraperitoneally injected with pentobarbital sodium until the righting reflex being disappeared in mice was recorded as sleep latency. The period from the righting reflex being disappeared in mice until the righting reflex being recovered in mice was recorded as sleep duration. The sleep duration of more than 5 min in mice was considered as being asleep.
The mice were administered with drugs for consecutive 10 days. 1 h after the last administration, the mice were intraperitoneally injected with the suprathreshold dose of pentobarbital sodium (51 mg/kg, 0.1 ml/10 g). The righting reflex being disappeared and recovered in mice were observed, and the time of the righting reflex being disappeared and recovered in mice were recorded. The evaluation criteria of sleep latency, sleep duration and sleep rate were the same as those in Section 7.2.1.

For assay [2], the system named is ICR mice. As to the kind of experiment: Sleeping-inducing test of pentobarbital sodium at the subthreshold dose. As to conditions: 14 days, pentobarbital sodium 35 mg/kg ip. On the procedure:
(§2) 140 ICR mice (15-17 g, male, purchased from Institute of Laboratory Animal Sciences, CAMS & PUMC) were randomly divided into 10 groups (14 mice per group) as follows: paeoniflorin group at a dose of 100 mg/kg, paeoniflorin group at a dose of 50 mg/kg, paeoniflorin group at a dose of 25 mg/kg, paeoniflorin group at a dose of 12.5 mg/kg, albiflorin group at a dose of 28 mg/kg, albiflorin group at a dose of 14 mg/kg, albiflorin group at a dose of 7 mg/kg, normal saline control group, high-dose group of doxepin as a positive drug (25 mg/kg), and low-dose group of doxepin as a positive drug (1 mg/kg).
as §1
The mice were administered with drugs for consecutive 14 days. 1 h after the last administration, the mice were intraperitoneally injected with the subthreshold dose of pentobarbital sodium (35 mg/kg, 0.1 ml/10 g). The righting reflex being disappeared and recovered in mice were observed, and the time of the righting reflex being disappeared and recovered in mice were recorded. The evaluation criteria of sleep latency, sleep duration and sleep rate were the same as those in Section 7.2.1.

For assay [3], the system named is ICR mice. Description: Spontaneous actions in mice. The settings on record: 14 days after administration. As for the experimental part: as §2
The test system of assay [4] is ICR mice. Description: Sleeping-inducing test of pentobarbital sodium at the subthreshold dose. As to conditions: 2 mg/kg, 14 days; pentobarbital sodium 35 mg/kg ip.
A further assay relates to KM mice. As to the kind of experiment: Light-dark box test in mice (anti-anxiety test). As to conditions: 2.5 mg/kg/d gavage, 7 days, test 1 h after administration on Day 8. As for the experimental part:
Mice were randomly divided into 5 groups, i.e. high-dose group (14 mg/kg/d), medium-dose group (7 mg/kg/d), low-dose group (3.5 mg/kg/d) of Albiflorin, diazepam group (2.5 mg/kg/d), NS group. Gavage administration was performed once a day, for consecutive 7 days. During the administration, animals had free access to feed and water. The test was carried out 1 hour after the administration on Day 8.
Within the light-dark box (44 cm×21 cm×21 cm), the dark box accounts for one third thereof, with a cover on the top; while the light box accounts for two thirds thereof, providing illumination brightness; and there is a hole between the two boxes for animal to pass through. In the test, mice were placed in the center of the light box, back to the dark box, and then observed. The times of entering into the dark box followed by returning to the light box in mice were counted, as an index for the assession of anti-anxiety effect of a drug.

The test system of another assay is 5-HT1A receptor. As to the kind of experiment: mRNA expression of 5-HT1A receptor in hippocampus of chronic stress rats (RT-PCR). The settings on record: 2.5 mg/kg/d, 21 days. As for the experimental part: After having free access to food and being deprived water for 24 h, 72 normal rats were administered with 1% sucrose aqueous solution, and measured the consumption within 1 h. According to the consumption of sucrose aqueous solution, the rats were randomly divided into six groups, 12 […] per group, i.e. normal control group, model group, positive drug Prozac group (2.5 mg/kg/d), high-dose group (70 mg/kg/d, comprising 11.2 mg of albiflorin), medium-dose group (35 mg/kg/d, comprising 5.6 mg of albiflorin), and low-dose group (17.5 mg/kg/d, comprising 2.8 mg of albiflorin) of Paeonia lactiflora Pall extract. When being modeled, the rats were simultaneously administered with drugs, once a day, for consecutive 21 days. […]
According to the instruction of TRIzol reagent, the total RNAs were extracted by one-step guanidine-isothiocyanate method. The integrity of the extracted total RNAs was confirmed by 0.9% agarose gel electrophoresis, and the content and purity of RNA were determined by UV spectrophotometer. […]
30 μl of 5-HT1A-R-amplified product and 10 μl of Actin-amplified product were mixed, and then subjected to 1.5% agarose gel electrophoresis. […] The ratio of IOD5-HTR/IODActin was the relative quantification of the amplified products, and the intergroup comparisons were carried out.

For `CN(C)CCC=C1c2ccccc2COc2ccccc21.Cl` [Doxepin, Doxepin Hydrochloride], in the assay with ICR mice [1] (1 mg/kg), the “Sleep Duration” value was 74.91 ± 16.55 min and the “Sleep Latency” value is listed as 4.38 ± 1.60 min. Besides, in the assay on ICR mice [1] (25 mg/kg), the “Sleep Duration” value is on record as 63.60 ± 12.09 min and the “Sleep Latency” value is reported as 4.72 ± 2.40 min. Further, in the assay on ICR mice [2] (1 mg/kg), the “Number of Sleeping Mice/Group” value was 1 and the “Sleep Rate” value is on record as 1/12. Further, the “Times of Spontaneous Action” value with ICR mice [3] (1 mg/kg) turned out to be 420.50 ± 110.28.
Consider `CN1C(=O)CN=C(c2ccccc2)c2cc(Cl)ccc21` [Diazepam], for which, in the assay on ICR mice [4], the “Number of Sleeping Mice/Group” value was 12 and the “Sleep Rate” value was 12/13*. In addition, the “Times of Returning from Dark Box back to Light Box” value with KM mice is 13.6 ± 3.35. The “Times of Spontaneous Action” value in the assay on ICR mice [3] (2 mg/kg) was 301.85 ± 103.11.
As for `CNCCC(Oc1ccc(C(F)(F)F)cc1)c1ccccc1` (centres unmarked) [Positive Drug, fluoxetine hydrochloride], the “mRNA expression of 5-HT1A receptor (ratio IOD5-HTR/IODActin)” value with 5-HT1A receptor was 0.63 ± 0.21.
Turning to `C[C@@]12C[C@@]3(O)O[C@@H](O1)[C@]1(COC(=O)c4ccccc4)[C@H]3C[C@@]12O[C@@H]1O[C@H](CO)[C@@H](O)[C@H](O)[C@H]1O` [Paeoniflorin, paeoniflorin], the “Sleep Duration” value in the assay with ICR mice [1] (12.5 mg/kg) was determined as 74.57 ± 13.02 min; in the assay on ICR mice [1] (25 mg/kg), 68.64 ± 19.23 min; in the assay with ICR mice [1] (50 mg/kg), 73.70 ± 27.88 min; in the assay on ICR mice [1] (100 mg/kg), 72.98 ± 20.83 min. Also, the “Sleep Latency” value with ICR mice [1] (12.5 mg/kg) was determined as 4.11 ± 1.52 min; with ICR mice [1] (25 mg/kg) it was 4.96 ± 2.18 min; with ICR mice [1] (50 mg/kg), 5.17 ± 1.37 min; in the assay with ICR mice [1] (100 mg/kg), 28.10 ± 44.63 min. Also, the “Number of Sleeping Mice/Group” value with ICR mice [2] (12.5 mg/kg) was found to be 2; in the assay on ICR mice [2] (25 mg/kg), 4; with ICR mice [2] (50 mg/kg), 5; in the assay on ICR mice [2] (100 mg/kg) it was 3. Further, the “Sleep Rate” value with ICR mice [2] (12.5 mg/kg) is listed as 2/13; with ICR mice [2] (25 mg/kg) it was 1/3; in the assay on ICR mice [2] (50 mg/kg), 5/12; with ICR mice [2] (100 mg/kg), 3/11. For the same compound, the “Times of Spontaneous Action” value in the assay on ICR mice [3] (12.5 mg/kg) is on record as 456.71 ± 93.95; in the assay on ICR mice [3] (25 mg/kg) it was 468.71 ± 73.56; in the assay on ICR mice [3] (50 mg/kg) it was 503.00 ± 137.04; in the assay with ICR mice [3] (100 mg/kg) it was 434.45 ± 76.43.
